What was measured:
recombinant human SK [1] = molecular target: T1, recombinant human SK (Homo sapiens, UniProt Q9NYA1); assay: Inhibition of recombinant human SK, LC/MS/MS assay; type: biochemical; details: 6 μg/ml compound
T1 construct: glutathione-S-transferase (GST) (N); made in house; host or cells: bacteria (pGEX vector)
Method: (§1) An assay for identifying inhibitors of recombinant human SK has been established (French et al., 2003, Cancer Res 63: 5962). cDNA for human SK was subcloned into a pGEX bacterial expression vector, which results in expression of the enzyme as a fusion protein with glutathione-S-transferase, and the fusion protein is then purified on a column of immobilized glutathione. SK activity is measured by incubation of the recombinant SK with [^3H]sphingosine and 1 mM ATP under defined conditions, followed by extraction of the assay mixture with chloroform:methanol under basic conditions. […] Radioactivity in aliquots of the aqueous phase is then quantified as a measure of [^3H]S1P formation. There is a low background level of partitioning of [^3H]sphingosine into the aqueous phase, and addition of the recombinant SK greatly increases the formation of [^3H]S1P.
In an alternate assay procedure, the recombinant human SK was incubated with unlabeled sphingosine and ATP as described above. After 30 minutes, the reactions were terminated by the addition of acetonitrile to directly extract the newly synthesized S1P. The amount of S1P in the samples is then quantified as follows. C17 base D-erythro-sphingosine and C17 S1P are used as internal standards for sphingosine and S1P, respectively. These seventeen-carbon fatty acid-linked sphingolipids are not naturally produced, making these analogs excellent standards. The lipids are then fractionation by High-Performance Liquid Chromatography using a C8-reverse phase column eluted with 1 mM methanolic ammonium formate/2 mM aqueous ammonium formate. A Finnigan LCQ Classic LC-MS/MS is used in the multiple reaction monitoring positive ionization mode to acquire ions at m/z of 300 (precursor ion)→282 (product ion) for sphingosine and 380→264 for S1P. Calibration curves are generated by plotting the peak area ratios of the synthetic standards for each sphingolipid, and used to determine the normalized amounts of sphingosine and S1P in the samples.
Each Compound of this invention was tested for its ability to inhibit recombinant SK using the LC/MS/MS assay described above. Typically, the Compounds were individually dissolved in dimethylsulfoxide and tested at a final concentration of 6 micrograms/ml.

[2] = test system: MCF-7 human breast adenocarcinoma cells; assay: Cytotoxicity, SRB assay, 48 h; type: cell-based; details: Homo sapiens, MCF7; Table 6; 48 h, SRB, inhibition of cell proliferation; read-out: MCF-7 IC50
Method: To further assess the biological efficacies of the Compounds in intact cells, each Compound was evaluated for cytotoxicity using human cancer cell lines. These experiments followed methods that have been extensively used. Cell lines tested included MCF-7 human breast adenocarcinoma cells. The indicated cell lines were treated with varying doses of the test Compound for 48 h. Cell survival was then determined using the SRB binding assay (Skehan et al., 1990, J Natl Cancer Inst 82: 1107), and the concentration of compound that inhibited proliferation by 50% (the IC50) was calculated. Values (in μM) represent the mean±sd for replicate trials.

[3] = test system: endogenous SK in MDA-MB-231 human breast carcinoma cells; assay: Intact cell assay of endogenous SK ([3H]sphingosine to [3H]S1P); type: cell-based; details: MDA-MB-231 cells, 20 μg/ml compound
Method: We have previously described an intact cell assay where, following treatment with a test compound, MDA-MB-231 human breast carcinoma cells are incubated with [^3H]sphingosine at a final concentration of 1 μM (French et al., 2003, Cancer Res 63: 5962). The cells take up the exogenous [^3H]sphingosine and convert it to [^3H]S1P through the action of endogenous SK. The resulting [^3H]S1P is isolated via charge-based separation as indicated above. […] For potency studies, MDA-MB-231 cells were exposure to varying concentrations of a test Compound and then assayed for conversion of [^3H]sphingosine to [^3H]S1P.

recombinant human SK [4] = molecular target: T1, recombinant human SK; assay: Recombinant human SK assay with [3H]sphingosine; type: biochemical; details: positive control
Method: as §1

T1 sequence (Q9NYA1 whole entry): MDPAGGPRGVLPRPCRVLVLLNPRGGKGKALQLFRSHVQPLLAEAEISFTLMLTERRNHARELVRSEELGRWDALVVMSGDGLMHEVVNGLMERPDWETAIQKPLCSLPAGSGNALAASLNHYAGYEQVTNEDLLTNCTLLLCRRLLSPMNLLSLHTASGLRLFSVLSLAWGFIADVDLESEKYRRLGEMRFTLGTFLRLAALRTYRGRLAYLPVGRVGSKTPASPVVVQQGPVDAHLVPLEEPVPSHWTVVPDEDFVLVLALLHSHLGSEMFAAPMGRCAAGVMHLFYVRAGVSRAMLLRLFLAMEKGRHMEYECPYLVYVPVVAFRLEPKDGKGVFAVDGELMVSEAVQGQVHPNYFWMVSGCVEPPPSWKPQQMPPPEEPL

| Compound | inhibition at 6 µg/mL (recombinant human SK [1]) [%] | IC50 [2] [µM] | Cellular S1P (% inhibition) [3] [%] | concentrations at which SK activity is completely inhibited (recombinant human SK [4]) |
| --- | --- | --- | --- | --- |
| O=C(Nc1nc2cc(Cl)ccc2o1)c1cccc(F)c1 [Compound 97, N-(5-Chloro-benzooxazol-2-yl)-3-fluoro-benzamide] | 71 | 1.7 | – | – |
| O=C(NCc1ccncc1)c1nc(-c2ccc(Cl)cc2)cs1 [Compound 34, 4-(4-Chloro-phenyl)thiazole-2-carboxylic acid (pyridin-4-ylmethyl)amide] | 0 | 38 | – | – |
| CCCCCCCCCCCCCC(=O)Nc1nc(-c2ccc(Cl)cc2)cs1 [Compound 2, Tetradecanoic acid [4-(4-chloro-phenyl)-thiazol-2-yl]-amide] | 30 | 1.9 | – | – |
| CCCC(=O)Oc1ccc(CC(=O)Nc2nc(-c3ccc(Cl)cc3)cs2)cc1[N+](=O)[O-] [Compound 30, Butyric acid 4-{[4-(4-chloro-phenyl)-thiazol-2-ylcarbamoyl]-methyl}-2-nitro-phenyl ester] | 0 | 32 | – | – |
| CCCC(=O)Oc1cccc(C=CC(=O)Nc2nc(-c3ccc(Cl)cc3)cs2)c1 [Compound 14, Butyric acid 3-{2-[4-(4-chloro-phenyl)-thiazol-2-ylcarbamoyl]-vinyl}-phenyl ester] | 0 | 2.9 | – | – |
| Clc1ccc(-c2csc(N(CCCc3ccccc3)CCCc3ccccc3)n2)cc1 [Compound 71, [4-(4-Chloro-phenyl)-thiazol-2-yl]-bis-(3-phenyl-propyl)-amine] | 44 | 111 | – | – |
| CCCC(=O)Oc1ccc(C=CC(=O)Nc2nc(-c3ccc(Cl)cc3)cs2)cc1 [Compound 15, Butyric acid 4-{2-[4-(4-chloro-phenyl)-thiazol-2-ylcarbamoyl]-vinyl}-phenyl ester] | 73 | 2.9 | – | – |
| CCCCCCCCCCCCCCCC(=O)Nc1nc(-c2ccc(Cl)cc2)cs1 [Compound 3, Hexadecanoic acid [4-(4-chloro-phenyl)-thiazol-2-yl]-amide] | 88 | 111 | 34 | – |
| Clc1ccc(-c2csc(N(Cc3ccccc3)Cc3ccccc3)n2)cc1 [Compound 72, Dibenzyl-[4-(4-chloro-phenyl)-thiazol-2-yl]-amine] | 79 | 127 | – | – |
| O=C(C=Cc1ccccc1)Nc1nc(-c2ccc(Cl)cc2)cs1 [Compound 7, N-[4-(4-Chloro-phenyl)-thiazol-2-yl]-3-phenyl-acrylamide] | 71 | 18 | – | – |
| CCCC(=O)Oc1ccccc1C=CC(=O)Nc1nc(-c2ccc(Cl)cc2)cs1 [Compound 13, Butyric acid 2-{2-[4-(4-chloro-phenyl)-thiazol-2-ylcarbamoyl]-vinyl}-phenyl ester] | 0 | 2.3 | – | – |
| CCCCCCCCCCCCC/C=C/[C@@H](O)[C@H](CO)N(C)C [DMS, D-erythro-N,N-dimethylsphingosine] | – | – | – | above 25 μM |
| COc1cc(C=CC(=O)Nc2nc(-c3ccc(Cl)cc3)cs2)ccc1OC(C)=O [Compound 10, Acetic acid 4-{2-[4-(4-chloro-phenyl)-thiazol-2-ylcarbamoyl]-vinyl}-2-methoxy-phenyl ester] | 100 | 24 | – | – |
| CCCC(=O)Oc1ccc(CCC(=O)Nc2nc(-c3ccc(Cl)cc3)cs2)cc1OC [Compound 29, Butyric acid 4-{2-[4-(4-chloro-phenyl)-thiazol-2-ylcarbamoyl]-ethyl}-2-methoxy-phenyl ester] | 0 | 26 | – | – |
| O=C(C=Cc1ccc([N+](=O)[O-])cc1)Nc1nc(-c2ccc(Cl)cc2)cs1 [Compound 5, N-[4-(4-Chloro-phenyl)-thiazol-2-yl]-3-(4-nitro-phenyl)-acrylamide] | 0 | 16 | – | – |

Source: patent publication US20100137315A1, “Sphingosine Kinase Inhibitors and Methods of Their Use” (APOGEE BIOTECHNOLOGY CORPORATION, priority 2005, published 2010)
